From patent US6180599A, “Pharmaceutical composition, containing medium-chain fatty acids as active ingredients, for dental caries and periodontal disease” (priority 1997, dated 2001) come the findings set out here.

For experiment [1], the system named is cariogenic plaque bacteria (standard strains). Kind of experiment: Inhibitory effect of acid production, standard strains. The experiment is classed as cell-based, Streptococcus, Lactobacillus and Actinomyces. The note with it: for inhibitory effect of acid production (in words): 0.5-8 mM, pH 5.0 and 7.0, 24-48 hours. The method, then: In order to identify the action by which medium-chain fatty acids inhibit acid production, the inhibitory effect and concentration of acid production were determined in seven kinds of standard cariogenic plaque bacteria. Also, the inhibitory effect of acid production for 20 kinds of cariogenic plaque bacteria, separated from the human oral cavity, was assayed. Liquid culture media used were: Todd-Hewitt broth of Streptococcus, Lactobacilli MRS broth of Lactobacillus and Brain Heart Infusion broth of Actinomyces. […] The final pH of the culture medium was measured after culturing for 24^~ 48 hours in 10% CO2 incubator.

The nature of experiment [2]: Extracellular polysaccharide in liquid medium with fatty acid, no bacteria. The protocol: (§1) In order to identify the effect by which medium-chain fatty acids inhibit plaque matrix formation, inhibitory effect and concentration of extracellular polysaccharide synthesis were determined in seven kinds of standard cariogenic plaque bacteria. Also, the inhibitory effect of extracellular polysaccharide synthesis for 20 kinds of cariogenic plaque bacteria, separated from the human oral cavity, was measured. Liquid culture media used were: Todd-Hewitt broth of Streptococcus, Lactobacilli MRS broth of Lactobacillus and Brain Heart Infusion broth of Actinomyces. 0.1 ml of bacterial (or cell) suspension (OD600 =0.5) of each bacteria was inoculated to 5.9 ml of culture media containing 1 mM of medium-chain fatty acids and 2% of glucose, and was cultured for 24^~ 48 hours in 10% CO2 incubator. After culturing, the resultant was centrifuged to precipitate at 5,000×g for 15 minutes, then soluble extracellular polysaccharide was separated and purified from the supernatant and insoluble extracellular polysaccharide from the cell pellet, and then these were quantified.

For a further experiment, the system named is L. casei ATCC 4646. Kind of experiment: Inhibitory effect on extracellular polysaccharide synthesis, standard strain. The note with it: 1 mM. In kind it is cell-based, Lactobacillus casei. The protocol: as §1
The test system of a further experiment is L. casei ATCC 27216. The experiment is described as above. The experiment is classed as cell-based, Lactobacillus casei. The note with it: 1 mM. The protocol:
as §1

Experiment [3] has as its system cariogenic plaque bacteria separated from human oral cavities. Nature of the experiment: Inhibitory effect of bacterial growth, bacteria separated from human oral cavities. The experiment is classed as cell-based. The note with it: 1 mM lauric acid as salt form; neutral and acidic pH; FIG. 4. The protocol: In order to evaluate how medium-chain fatty acids influence bacterial growth of cariogenic plaque bacteria, the influence on each bacteria was evaluated after selecting seven kinds of bacterial strains as standard bacteria among cariogenic plaque bacteria. […] The results that medium-chain fatty acids have on influencing bacterial growth of cariogenic plaque bacteria is shown in FIG. 3. And the result of measuring inhibitory effect of bacterial growth of 20 kinds of cariogenic plaque bacteria separated from the human oral cavities is shown in FIG. 4.

Structures are written as SMILES.

In the case of `CCCCCCCCCCCC(=O)[O-].[Na+]` [C12, sodium laurate], the “inhibitory effect of acid production (in words)” value in experiment [1] was “excellent inhibitory effect of acid production even at low concentration of 1 mM”; in experiment [1] (listed as salt form of lauric acid) it was “almost completely inhibits the acid production ability”. For the same compound, in experiment [1] (acidic conditions, FIG. 1), the “inhibitory effect of acid production in acidic conditions (in words)” value is given as “significant effect of acid production in acidic conditions”. For the same compound, the “inhibitory effect of acid production, sequence” value in experiment [1] (ranking, FIG. 1) is reported as “sodium laurate>sodium capriate>sodium nonanoate”. Besides, the “Extracellular polysaccharide, soluble” value in experiment [2] (Table 1, 1 mM) was 1.4 ± 0.1 µg/mL; in experiment [2] (Table 2, 1 mM), 4.6 ± 1.3 µg/mL; in experiment [2] (Table 3, 1 mM) it was 4.4 ± 0.2 µg/mL; in the experiment on L. casei ATCC 4646 (2% glucose, 24-48 hours, control 43.6 ± 7.0), 19.2 ± 2.9 µg/mL; in the experiment on L. casei ATCC 27216 (2% glucose, 24-48 hours, control 67.3 ± 4.5) it was 19.0 ± 2.1 µg/mL. For the same compound, the “Extracellular polysaccharide, insoluble” value in the experiment with L. casei ATCC 4646 (2% glucose, 24-48 hours, control 5.3 ± 0.5) amounted to 0.2 ± 0.2 µg/mL; with L. casei ATCC 27216 (2% glucose, 24-48 hours, control 5.9 ± 0.4), 2.0 ± 0.1 µg/mL. Besides, the “Inhibitory rate, soluble” value with L. casei ATCC 4646 (vs control) amounted to 56%; in the experiment with L. casei ATCC 27216 (vs control), 72%. The “inhibition of bacterial growth (in words)” value in experiment [3] is on record as “more remarkable effects even at low concentration than that of the control group”.
